The values below come from ChEMBL document CHEMBL1156981, “NGF-potentiating vibsane-type diterpenoids from Viburnum sieboldii” (Bioorg Med Chem Lett, 2010).

Common to all, as to assay type: functional, cell-based
Assay [1] has as its system PC-12. Kind of assay: Induction of neurite outgrowth in rat PC12 cells assessed as morphological changes after 48 hrs by phase-contrast microscopy.
Assay [2] concerns PC-12. As to the kind of experiment: Potentiation of NGF-induced neurite outgrowth in rat PC12 cells assessed increase in neurite length extending from cell bodies after 48 hrs by phase-contrast microscopy.
Assay [3] deals with PC-12. Kind of assay: Potentiation of NGF-induced neurite outgrowth in rat PC12 cells assessed as morphological changes at 0.1 to 40 uM after 48 hrs by phase-contrast microscopy.
Assay [4] relates to PC-12. Kind of assay: Potentiation of NGF-induced neurite outgrowth in rat PC12 cells assessed increase in neurite length extending from cell bodies at 0.1 to 40 uM after 48 hrs by phase-contrast microscopy.
The test system of assay [5] is PC-12. As to the kind of experiment: Potentiation of NGF-induced neurite outgrowth in rat PC12 cells assessed as morphological changes after 48 hrs by phase-contrast microscopy.

Activity calls are given as the source filed them. No cut-off for these calls is given here.

Take `COC(C)(C)/C=C/C[C@@]1(C)CC=C(CO)C(=O)[C@H](CC(C)=O)[C@@H]1/C=C/OC(=O)C=C(C)C`: the outcome in assay [1], in assay [2], in assay [3] and in assay [4] was inactive.

For `CO[C@@]1(C)C[C@@H]2OCC3=CC[C@](C)(C/C=C/C(C)C)[C@@H](/C=C/OC(=O)C=C(C)C)[C@]32O1`, the outcome in assay [1] was inactive. For the same molecule, the Activity entry in assay [2] and in assay [5] was “Dose-dependent effect” in each case.

On to `CC(=O)C[C@@H]1C[C@@]2(C)CC=C3CO[C@@H](CC(C)=O)[C@]3(O1)[C@@H]2/C=C/OC(=O)C=C(C)C`, for which the outcome in assay [1] was inactive.

Consider `CO[C@]1(C)C[C@@H]2OCC3=CC[C@](C)(C/C=C/C(C)C)[C@@H](/C=C/OC(=O)C=C(C)C)[C@]32O1`, for which the result in assay [1] was inactive. The Activity entry in assay [2] and in assay [5] was “Dose-dependent effect” throughout.

For the molecule `COC(C)(C)/C=C/C[C@@]1(C)CC=C2CO[C@H]3C[C@@](C)(OC)O[C@@]23[C@@H]1/C=C\OC(=O)C=C(C)C`, the outcome in assay [1] was inactive. Further, the Activity result in assay [2] and in assay [5] was “Dose-dependent effect” each time.

As for `COC(C)(C)/C=C/C[C@@]1(C)CC=C(CO)C(=O)[C@@H](CC(C)=O)[C@@H]1/C=C/OC(=O)C=C(C)C`, the outcome in assay [1], in assay [3] and in assay [4] was inactive.

As for `COC(C)(C)/C=C/C[C@@]1(C)CC=C2CO[C@H]3C[C@@](C)(OC)O[C@@]23[C@@H]1/C=C/OC(=O)C=C(C)C`, the result in assay [1] was inactive.

For `COC(C)(C)/C=C/C[C@@]1(C)CC=C2CO[C@H]3C[C@](C)(OC)O[C@@]23[C@@H]1/C=C/OC(=O)C=C(C)C`, in assay [1], the outcome was inactive. The Activity result in assay [2] and in assay [5] was “Dose-dependent effect” in each case.
